Source: paper PMC11033320, “Activation of p53 signaling and regression of breast and prostate carcinoma cells by spirooxindole-benzimidazole small molecules” (Frontiers in Pharmacology, 2024)

Legend:
[1] = MTT cytotoxicity to normal human lung fibroblast Wi-38 cell line; format: cell-based; conditions: Wi-38 normal lung fibroblast cells, mean ± SEM, read-out: percentage of Wi-38 viability
Procedure: Normal human lung fibroblast Wi-38 cell line was used to detect cytotoxicity of the studied compounds (Table S8). Wi-38 cell line was cultured in DMEM medium-contained 10% fetal bovine serum (FBS), seeded as 5x10^3 cells per well in 96-well cell culture plate and incubated at 37 °C in 5% CO2 incubator. After 24 h for cell attachment, serial concentrations of the synthetic compounds were incubated with Wi-38 cells for 72 h. Cell viability was assayed by MTT method (Mosmann, 1983). Twenty microliters of 5 mg/ml MTT (Sigma, USA) was added to each well and the plate was incubated at 37 °C for 3 h. Then MTT solution was removed, 100 µl DMSO was added and the absorbance of each well was measured with a microplate reader (BMG LabTech, Germany) at 570 nm.

[2] = test system: HL-60(TB); experiment: NCI anticancer screening, Leukemia HL-60(TB); format: cell-based; conditions: Homo sapiens, read-out: % Growth Inhibition (GI %)
Description: (§1) The compound has been processed according to standard method NCI-60 Human Tumor Cell Lines Screen for organic compound at development therapeutic program (DTP). Requests for access to this national resource can be submitted online at: […]

[3] = test system: A549/ATCC; experiment: NCI anticancer screening, Non-Small Cell Lung Cancer A549/ATCC; format: cell-based; conditions: Homo sapiens, read-out: % Growth Inhibition (GI %)
Description: as §1

[4] = test system: NCI-H226; experiment: NCI anticancer screening, Non-Small Cell Lung Cancer NCI-H226; format: cell-based; conditions: Homo sapiens; NCI-H226, 10 μM; read-out: % Growth Inhibition (GI %)
Description: as §1

[5] = test system: NCI-H23; experiment: NCI anticancer screening, Non-Small Cell Lung Cancer NCI-H23; format: cell-based; conditions: Homo sapiens; NCI-H23, 10 μM; read-out: % Growth Inhibition (GI %)
Description: as §1

[6] = test system: NCI-H322M; experiment: NCI anticancer screening, Non-Small Cell Lung Cancer NCI-H322M; format: cell-based; conditions: Homo sapiens, read-out: % Growth Inhibition (GI %)
Description: as §1

[7] = test system: NCI-H522; experiment: NCI anticancer screening, Non-Small Cell Lung Cancer NCI-H522; format: cell-based; conditions: Homo sapiens; NCI-H522, 10 μM; read-out: % Growth Inhibition (GI %)
Description: as §1

[8] = test system: HCT-15; experiment: NCI anticancer screening, Colon Cancer HCT-15; format: cell-based; conditions: Homo sapiens; HCT-15, 10 μM; read-out: % Growth Inhibition (GI %)
Description: as §1

[9] = test system: HT29; experiment: NCI anticancer screening, Colon Cancer HT29; format: cell-based; conditions: Homo sapiens, HT-29; HT29, 10 μM; read-out: % Growth Inhibition (GI %)
Description: as §1

[10] = test system: KM12; experiment: NCI anticancer screening, Colon Cancer KM12; format: cell-based; conditions: Homo sapiens; KM12, 10 μM; read-out: % Growth Inhibition (GI %)
Description: as §1

[11] = test system: SF-295; experiment: NCI anticancer screening, CNS Cancer SF-295; format: cell-based; conditions: Homo sapiens; SF-295, 10 μM; read-out: % Growth Inhibition (GI %)
Description: as §1

[12] = test system: SF-539; experiment: NCI anticancer screening, CNS Cancer SF-539; format: cell-based; conditions: Homo sapiens; SF-539, 10 μM; read-out: % Growth Inhibition (GI %)
Description: as §1

[13] = test system: U251; experiment: NCI anticancer screening, CNS Cancer U251; format: cell-based; conditions: Homo sapiens, U-251; U251, 10 μM; read-out: % Growth Inhibition (GI %)
Description: as §1

[14] = test system: LOX IMVI; experiment: NCI anticancer screening, Melanoma LOX IMVI; format: cell-based; conditions: Homo sapiens, read-out: % Growth Inhibition (GI %)
Description: as §1

[15] = test system: SK-MEL-5; experiment: NCI anticancer screening, Melanoma SK-MEL-5; format: cell-based; conditions: Homo sapiens; SK-MEL-5, 10 μM; read-out: % Growth Inhibition (GI %)
Description: as §1

[16] = test system: UACC-62; experiment: NCI anticancer screening, Melanoma UACC-62; format: cell-based; conditions: Homo sapiens; UACC-62, 10 μM; read-out: % Growth Inhibition (GI %)
Description: as §1

[17] = test system: OVCAR-3; experiment: NCI anticancer screening, Ovarian Cancer OVCAR-3; format: cell-based; conditions: Homo sapiens; OVCAR-3, 10 μM; read-out: % Growth Inhibition (GI %)
Description: as §1

[18] = test system: SN12C; experiment: NCI anticancer screening, Renal Cancer SN12C; format: cell-based; conditions: Homo sapiens, read-out: % Growth Inhibition (GI %)
Description: as §1

[19] = test system: MCF7; experiment: NCI anticancer screening, Breast Cancer MCF7; format: cell-based; conditions: Homo sapiens; MCF7, 10 μM; read-out: % Growth Inhibition (GI %)
Description: as §1

[20] = test system: HS 578T; experiment: NCI anticancer screening, Breast Cancer HS 578T; format: cell-based; conditions: Homo sapiens, read-out: % Growth Inhibition (GI %)
Description: as §1

[21] = test system: T-47D; experiment: NCI anticancer screening, Breast Cancer T-47D; format: cell-based; conditions: Homo sapiens, T47D, read-out: % Growth Inhibition (GI %)
Description: as §1

[22] = test system: MDA-MB-468; experiment: NCI anticancer screening, Breast Cancer MDA-MB-468; format: cell-based; conditions: Homo sapiens, read-out: % Growth Inhibition (GI %)
Description: as §1

[23] = biological target: T1, Mdm2 (residues 1–118 T47W) (Homo sapiens, UniProt Q00987, T47W); experiment: MDM2 binding by microscale thermophoresis (MST)
T1 construct: Mdm2 (residues 1–118 T47W; 500 nM)
Procedure: MST is a complementary biophysical assay to assess the binding of a small molecule to its receptor. […] Experiments were performed in 50 mM phosphate buffer at pH 7.4 containing 150 mM NaCl, 5 mM DTT, and 5% DMSO. […] Kd values and uncertainties were calculated using the MO Affinity Analysis software.

T1 sequence (Q00987 1-118 T47W): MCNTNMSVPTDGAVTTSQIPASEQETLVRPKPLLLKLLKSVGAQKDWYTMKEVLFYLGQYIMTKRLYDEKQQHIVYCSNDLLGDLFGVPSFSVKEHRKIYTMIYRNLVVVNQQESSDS

SMILES | viability at 72 h, 5 µM [1] | inhibition at 10 µM [2] | inhibition at 10 µM [3] | inhibition at 10 µM [4] | inhibition at 10 µM [5] | inhibition at 10 µM [6] | inhibition at 10 µM [7] | inhibition at 10 µM [8] | inhibition at 10 µM [9] | inhibition at 10 µM [10] | inhibition at 10 µM [11] | inhibition at 10 µM [12] | inhibition at 10 µM [13] | inhibition at 10 µM [14] | inhibition at 10 µM [15] | inhibition at 10 µM [16] | inhibition at 10 µM [17] | inhibition at 10 µM [18] | inhibition at 10 µM [19] | inhibition at 10 µM [20] | other results
O=C(c1nc2ccccc2[nH]1)[C@H]1[C@H](c2ccco2)C2CSCN2[C@]12C(=O)Nc1ccccc12 (stereo partly drawn) [Compound 6n, (3S,6′R)-6'-(1H-Benzo [d]imidazole-2-carbonyl)-7'-(furan-2-yl)-3′,6′,7′,7a′-tetrahydro-1′H-spiro [indoline-3.5′-pyrrolo [1,2-c]thiazol]-2-one] | 46.2 ± 1.47% | 98.4% | 102% | 92.2% | 92.9% | 101% | 99.7% | 105% | 115% | 102% | 109% | 96.4% | 109% | 91.7% | 98.2% | 90.6% | 110% | 92.5% | 100% | 91.3% | inhibition at 10 µM [21]: 84.8%; inhibition at 10 µM [22]: 102%; melting point: 240 to 242 °C
O=C(c1nc2ccccc2[nH]1)[C@H]1[C@H](c2cccc(F)c2)C2CSCN2[C@]12C(=O)Nc1ccccc12 (stereo partly drawn) [Compound 6m, (3S,6′R)-6'-(1H-Benzo [d]imidazole-2-carbonyl)-7'-(3-fluorophenyl)-3′,6′,7′,7a′-tetrahydro-1′H-spiro [indoline-3.5′-pyrrolo [1,2-c]thiazol]-2-one] | 43.7 ± 2.29% | 98.4% | 84.6% | 92.6% | 90.7% | 99.8% | 77.8% | 95% | 86% | 98.1% | 96.1% | 86.7% | 106% | 87.5% | 88.8% | 80.1% | 103% | 96.1% | 91.2% | 78.2% | inhibition at 10 µM [21]: 79.8%; inhibition at 10 µM [22]: 99.3%; melting point: 224 to 226 °C
O=C(c1nc2ccccc2[nH]1)[C@H]1[C@H](c2cccc(O)c2)C2CSCN2[C@]12C(=O)Nc1ccccc12 (stereo partly drawn) [Compound 6h, (3S,6′R)-6'-(1H-Benzo [d]imidazole-2-carbonyl)-7'-(3-hydroxyphenyl)-3′,6′,7′,7a′-tetrahydro-1′H-spiro [indoline-3.5′-pyrrolo [1,2-c]thiazol]-2-one] | 51 ± 1.83% | 104% | 95.4% | 99.1% | 99.3% | 93.5% | 83.9% | 103% | 104% | 89.4% | 105% | 90% | 98.9% | 84.3% | 93.7% | 80% | 97.2% | 94.8% | 92.8% | 80.4% | Kd [23]: 6.68 µM; inhibition at 10 µM [21]: 76.3%; inhibition at 10 µM [22]: 104%; melting point: 205 to 207 °C
CN(C)c1ccc([C@@H]2C3CSCN3[C@]3(C(=O)Nc4ccccc43)[C@H]2C(=O)c2nc3ccccc3[nH]2)cc1 (stereo partly drawn) [Compound 6k, (3S,6′R)-6'-(1H-Benzo [d]imidazole-2-carbonyl)-7'-(4-(dimethylamino)phenyl)-3′,6′,7′,7a′-tetrahydro-1′H-spiro [indoline-3.5′-pyrrolo [1,2-c]thiazol]-2-one] | 38.6 ± 3.02% | 99.5% | 94.2% | 91.4% | 94.3% | 99.8% | 87.9% | 99.1% | 99.3% | 95.7% | 103% | 99.6% | 103% | 94.2% | 98.2% | 84.4% | 103% | 94% | 93.6% | 91.7% | inhibition at 10 µM [21]: 83%; inhibition at 10 µM [22]: 99.8%; melting point: 178 to 180 °C
O=C(c1nc2ccccc2[nH]1)[C@H]1[C@H](c2ccc(C(F)(F)F)cc2)C2CSCN2[C@]12C(=O)Nc1ccccc12 (stereo partly drawn) [Compound 6c, (3S,6′R)-6'-(1H-Benzo [d]imidazole-2-carbonyl)-7'-(4-(trifluoromethyl)phenyl)-3′,6′,7′,7a′-tetrahydro-1′H-spiro [indoline-3.5′-pyrrolo [1,2-c]thiazol]-2-one] | 59.9 ± 2.84% | 108% | 97.1% | 79% | 82.3% | 91.1% | 87.7% | 88.9% | 74.7% | 71.8% | 95.3% | 91.6% | 93.2% | 88.7% | 94.2% | 77.5% | 87.7% | 90.7% | 77.7% | 83.9% | inhibition at 10 µM [21]: 69.7%; inhibition at 10 µM [22]: 91.6%; melting point: 185 to 187 °C
O=C(c1nc2ccccc2[nH]1)[C@H]1[C@H](c2ccccc2O)C2CSCN2[C@]12C(=O)Nc1ccccc12 (stereo partly drawn) [Compound 6j, (3S,6′R)-6'-(1H-Benzo [d]imidazole-2-carbonyl)-7'-(2-hydroxyphenyl)-3′,6′,7′,7a′-tetrahydro-1′H-spiro [indoline-3.5′-pyrrolo [1,2-c]thiazol]-2-one] | 40 ± 2.38% | 103% | 98.7% | 91.3% | 96.5% | 99.8% | 87.2% | 101% | 99.3% | 82.5% | 96.3% | 98.5% | 95.8% | 89.2% | 94% | 77.3% | 96.3% | 94.3% | 92.4% | 85% | inhibition at 10 µM [21]: 80.9%; inhibition at 10 µM [22]: 102%; melting point: 186 to 188 °C
